Experimental data as given in patent publication US12691070B2, “Cationic lipids and preparation method thereof” (RiboX Therapeutics HK Limited, priority 2023, dated 2026).

How the values were obtained:
[1] = LNP size and polydispersity index (PDI) by dynamic light scattering; type: physicochemical; conditions: for Size: in nm (unit assumed)
Outline: (§1)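 Ribogreen fluorescence with and without Triton X-100 gave encapsulation as 100% − (intact/lysed) signal; DLS size, PDI and zeta potential measured on a Zetasizer. Particles: 50:10:38.5:1.5 lipid mix, luciferase circRNA or mRNA, lipid:nucleotide 15 or 6, microfluidic assembly at pH 4.5, PBS-dialyzed.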

[2] = LNP zeta potential (Zetasizer); type: physicochemical
Outline: as §1

[3] = RNA encapsulation efficacy by Quant-IT Ribogreen kit; type: physicochemical; conditions: for Encapsulation Efficiency %: LNP with cirRNA (SEQ ID NO: 1); for Encapsulation Efficiency: LNP with mRNA (SEQ ID NO: 2)
Outline: as §1

Hep G2 cells [4] = assay: In vitro expression of firefly-luciferase, Hep G2; type: cell-based
Outline: (§2)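 Luminescence from cell lysates reports expression: luciferase activity was measured 72 h after transfection with 100 ng/mL RNA-LNPs encoding firefly luciferase.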

RAW 264.7 cells [5] = assay: In vitro expression of firefly-luciferase, RAW 264.7; type: cell-based
Outline: as §2

Hep G2 cells [6] = assay: In vitro toxicity (CellTiter-Glo cell viability), Hep G2; type: cell-based;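 note: percent of untreated cells luminescence signal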
Outline: (§3)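 Viability after a 72 h incubation with 1 μg/mL RNA-LNP formulations was assessed luminometrically using CellTiter-Glo.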

RAW 264.7 cells [7] = assay: In vitro toxicity (CellTiter-Glo cell viability), RAW 264.7; type: cell-based;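 note: percent of untreated cells luminescence signal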
Outline: as §3

BALB/C mice [8] = assay: In vivo expression, whole-body luminescence (IVIS)
Experimental: 6-8 week old, female BALB/C mice were injected with 0.05 mg*kg-1 of RNA-LNPs encoding for firefly-luciferase by intravenous injection. At 6 hours post injection, animals were intraperitoneally injected with 15 mg/ml of Luciferin substrate and whole-body luminescence was determined by a bioluminescent in vivo imaging system (IVIS).

MCP-I = MCP-I cytokine elevation in serum; type: in vivo; conditions: cirRNA (SEQ ID NO: 1) LNPs, mice
Experimental: 6-8 week old, female BALB/C mice were injected with 0.5 mg*kg-1 of RNA LNPs by intravenous injection. At 2 and 24 hours post injection, animals were bled and sera concentrations of MCP-I were determined by an immunoassay (Luminex).

[9] = system: Alanine Aminotransferase (ALT); assay: Liver enzyme elevation in serum, ALT; type: in vivo; conditions: cirRNA (SEQ ID NO: 1) LNPs, BALB/C mice, intravenous 0.5 MPK
Experimental: (§4) 6-8 week old, female BALB/C mice were injected with 0.5 mg*kg-1 of RNA LNPs by intravenous injection. At 2 and 24 hours post injection, animals were bled and sera concentrations of Alanine Aminotransferase (ALT) and Aspartate Aminotransferase (AST) were determined by a blood chemistry analyzer.

[10] = system: Aspartate Aminotransferase (AST); assay: Liver enzyme elevation in serum, AST; type: in vivo; conditions: cirRNA (SEQ ID NO: 1) LNPs, BALB/C mice, intravenous 0.5 MPK
Experimental: as §4

BALB/C mice [11] = assay: Local tolerance determination by footpad injection; type: in vivo; conditions: cirRNA (SEQ ID NO: 1) LNP, 0.175 mg*kg-1 subcutaneous into the footpad, 24 hours post minus prior
Experimental: 6-8 week old, female BALB/C mice were injected with 0.175 mg*kg-1 RNA LNPs by subcutaneous injection into the footpad. Prior to, and 24 hours post injections, injected footpad thickness was determined by a caliper.

[12] = cirRNA (SEQ ID NO: 1) LNPs, firefly-luciferase luminescence, Hep G2 cells
[13] = mRNA (SEQ ID NO: 2) LNP, 100 ng/mL, 72 hours post transfection, luciferase activity
[14] = cirRNA (SEQ ID NO: 1) LNPs, firefly-luciferase luminescence, RAW 264.7 cells
[15] = cirRNA (SEQ ID NO: 1) LNPs, Hep G2 cells
[16] = mRNA (SEQ ID NO: 2) LNP, 1 μg/mL, 72 hours post transfection
[17] = cirRNA (SEQ ID NO: 1) LNPs, RAW 264.7 cells
[18] = cirRNA (SEQ ID NO: 1) LNPs, BALB/C mice
[19] = mRNA (SEQ ID NO: 2) LNP, 0.05 mg*kg-1 intravenous, 6 hours post injection

Row | SMILES | PDI ([1]; LNP with cirRNA (SEQ ID NO: 1)) | Size ([1]; LNP with cirRNA (SEQ ID NO: 1)) | PDI ([1]; LNP with mRNA (SEQ ID NO: 2)) | Size ([1]; LNP with mRNA (SEQ ID NO: 2)) | Zeta (mV) ([2]; LNP with cirRNA (SEQ ID NO: 1)) | Zeta (mV) ([2]; LNP with mRNA (SEQ ID NO: 2)) | Encapsulation Efficiency % [3] [%] | Encapsulation Efficiency [3] [%] | In vitro Expression HepG2 (Hep G2 cells [4]; [12]) | In vitro Expression HepG2 (Hep G2 cells [4]; [13]) | In vitro Expression RAW (RAW 264.7 cells [5]; [14]) | In vitro Expression RAW (RAW 264.7 cells [5]; [13]) | In vitro Viability HepG2 (Hep G2 cells [6]; [15]) [%] | In vitro Viability HepG2 (Hep G2 cells [6]; [16]) [%] | In vitro Viability RAW (RAW 264.7 cells [7]; [17]) [%] | In vitro Viability RAW (RAW 264.7 cells [7]; [16]) [%] | In vivo Expression (Whole Body) (BALB/C mice [8]; [18]) | In vivo Expression (Whole Body) (BALB/C mice [8]; [19]) | MCP-I in Sera 2 hours After 0.5 MPK Injection (MCP-I) [pg/mL] | MCP-I in Sera 24 hours After 0.5 MPK Injection (MCP-I) [pg/mL] | further results
1 | CCCCCCCCCCCOC(=O)CCCCCN(CCCCCCCC(=O)OC(CCCCCCCC)CCCCCCCC)CCOC(=O)NCCN1CCCCC1 [Lipid 165] | 0.05 | 90.53 | 0.1265 | 98.24 | −1.76 | −0.3264 | 91 | 86.43 | 7.20E+05 | 3.27E+06 | 5.29E+04 | 6.06E+05 | 94 | 93 | 88 | 101 | 1.11E+08 | 1.63E+08 | 127.19 | 113.67 | ALT in Sera (IU/L) 2 hours After 0.5 MPK Injection [9]: 63.90 IU/L; ALT in Sera (IU/L) 24 hours After 0.5 MPK Injection [9]: 61.47 IU/L; AST in Sera (IU/L) 2 hours After 0.5 MPK Injection [10]: 128.43 IU/L; AST in Sera (IU/L) 24 hours After 0.5 MPK Injection [10]: 99.03 IU/L; Footpad Thickness (24 h−0 h, mm) (BALB/C mice [11]): 0.32 mm
2 | CCCCCCCCCCC(CCCCCCCC)COC(=O)CCCCCN(CCCCCC(=O)OCC(CCCCCCCC)CCCCCCCCCC)CCOC(=O)NCCN1CCCC1 (stereo not drawn) [Lipid 168] | 0.06 | 93.98 | 0.101 | 68.36 | −0.573 | 0.8152 | 97 | 89.10 | 1.03E+07 | 1.80E+07 | 1.66E+06 | 6.99E+05 | 55 | 70 | 79 | 75 | 4.82E+08 | 5.89E+09 | 4607.51 | 75.08 | ALT in Sera (IU/L) 2 hours After 0.5 MPK Injection [9]: 72.80 IU/L; ALT in Sera (IU/L) 24 hours After 0.5 MPK Injection [9]: 57.60 IU/L; AST in Sera (IU/L) 2 hours After 0.5 MPK Injection [10]: 218.63 IU/L; AST in Sera (IU/L) 24 hours After 0.5 MPK Injection [10]: 139.13 IU/L; Footpad Thickness (24 h−0 h, mm) (BALB/C mice [11]): 1.13 mm
3 | CCCCCCCCCCC(CCCCCCCC)COC(=O)CCCCCN(CCCCCC(=O)OCC(CCCCCCCC)CCCCCCCCCC)CCOC(=O)NCCN1CCCCC1 (stereo not drawn) [Lipid 169] | 0.003 | 73.59 | 0.07881 | 88.09 | −2.92 | −0.8755 | 95 | 87.64 | 1.94E+06 | 1.59E+07 | 5.36E+05 | 2.87E+06 | 88 | 93 | 82 | 83 | 4.92E+08 | 1.46E+09 | 509.14 | 80.18 | ALT in Sera (IU/L) 2 hours After 0.5 MPK Injection [9]: 65.40 IU/L; ALT in Sera (IU/L) 24 hours After 0.5 MPK Injection [9]: 57.80 IU/L; AST in Sera (IU/L) 2 hours After 0.5 MPK Injection [10]: 129.50 IU/L; AST in Sera (IU/L) 24 hours After 0.5 MPK Injection [10]: 87.00 IU/L; Footpad Thickness (24 h−0 h, mm) (BALB/C mice [11]): 0.84 mm
4 | CCCCCCCCCCC(CCCCCCCC)COC(=O)CCCCCN(CCCCCC(=O)OCC(CCCCCCCC)CCCCCCCCCC)CCOC(=O)NCCN(C)C (stereo not drawn) [Lipid 170] | 0.08 | 96.82 | 0.0744 | 165.8 | −0.455 | 3.233 | 97 | 86.13 | 2.91E+07 | 2.23E+08 | 3.14E+06 | 2.87E+02 | 31 | 124 | 92 | 82 | 3.35E+08 | 1.02E+09 | 1322.04 | 922.24 | ALT in Sera (IU/L) 2 hours After 0.5 MPK Injection [9]: 62.53 IU/L; ALT in Sera (IU/L) 24 hours After 0.5 MPK Injection [9]: 66.47 IU/L; AST in Sera (IU/L) 2 hours After 0.5 MPK Injection [10]: 175.67 IU/L; AST in Sera (IU/L) 24 hours After 0.5 MPK Injection [10]: 120.57 IU/L; Footpad Thickness (24 h−0 h, mm) (BALB/C mice [11]): 0.95 mm
5 | CCCCCCCCCC(=O)OCCCCCCCN(CCCCCCCCOC(=O)C(CCCCCC)CCCCCCCC)CCOC(=O)NCCN1CCCC1 (stereo not drawn) [Lipid 195] | 0.2474 | 94.75 | 0.1254 | 114.3 | 6.123 | 16.37 | 94 | 75.44 | 1.62E+05 | 1.23E+07 | 9.03E+03 | 1.67E+07 | 103 | 116 | 96 | 77 | 3.91E+07 | 1.63E+08 | 2643.00 | 78.52 | ALT in Sera (IU/L) 2 hours After 0.5 MPK Injection [9]: 109.00 IU/L; ALT in Sera (IU/L) 24 hours After 0.5 MPK Injection [9]: 35.00 IU/L; AST in Sera (IU/L) 2 hours After 0.5 MPK Injection [10]: 264.00 IU/L; AST in Sera (IU/L) 24 hours After 0.5 MPK Injection [10]: 84.67 IU/L; Footpad Thickness (24 h−0 h, mm) (BALB/C mice [11]): 0.56 mm
6 | CCCCCCCCCC(=O)OCCCCCCCN(CCCCCCCCOC(=O)C(CCCCCC)CCCCCCCC)CCOC(=O)NCCN1CCCCC1 (stereo not drawn) [Lipid 196] | 0.0364 | 89.57 | 0.1806 | 117.5 | 0.4256 | −2.076 | 93 | 91.87 | 5.54E+04 | 1.58E+06 | 1.22E+04 | 2.31E+06 | 103 | 91 | 91 | 110 | 1.86E+07 | 1.41E+08 | 489.33 | 197.30 | ALT in Sera (IU/L) 2 hours After 0.5 MPK Injection [9]: 80.33 IU/L; ALT in Sera (IU/L) 24 hours After 0.5 MPK Injection [9]: 93.00 IU/L; AST in Sera (IU/L) 2 hours After 0.5 MPK Injection [10]: 202.33 IU/L; AST in Sera (IU/L) 24 hours After 0.5 MPK Injection [10]: 180.67 IU/L; Footpad Thickness (24 h−0 h, mm) (BALB/C mice [11]): 0.44 mm
